Measurements published in patent US6794383B2, “Heart muscular cell apoptosis inhibitors and remedies/preventives for heart diseases” (Takeda Chemical Industries, Ltd., priority 2000, dated 2004).

Key:
[1] = test system: phosphorylated STAT3 (Tyr705) / gp130 signal; assay: Enhancing action on gp130 signal: LIF-induced phosphorylation of STAT3 (Tyr705) by immunoblotting; assay type: cell-based, rat; settings: 0.01-10 μM Compound 1 with 10 U/ml human LIF, 30 minutes, primary heart muscle cells from newborn rats, FIG. 1
Text: STAT3 (signal transducers and activators of transcription-3) is a primary positive regulatory factor involved in transmission of gp130 signal. Phosphorylation of the tyrosine residue at the 705th position (Tyr705) is essential for activation of STAT3. Accordingly, this phosphorylation can be used as an indicator of activation of STAT3, that is, of an enhancing action on gp130 signal.
Primary heart muscle cells derived from newborn rats were stimulated with a small amount of LIF (Leukemia inhibitory factor) to induce gp130 signal in the presence of a test compound (Compound 1 obtained in Reference Example 1). Phosphorylation of Tyr705 was examined by immunoblotting with an antibody specifically recognizing phosphorylated STAT3, to confirm the enhancing action of the test compound on gp130 signal.
The primary heart muscle cells derived from newborn rats, obtained in the method of Experimental Example 1, were suspended at a density of 5×10^6 cells/ml in Medium 199 containing 10% fetal bovine serum, then put to a 12-well plate (ASAHI TECHNO GLASS CORPORATION) in a volume of 2.0 ml/well, and cultured for 1 day in a 5% CO2 incubator set at 37° C. […]

[2] = test system: primary heart muscle cells derived from newborn rats; assay: Inhibitory activity on heart muscle cell apoptosis (serum-free culture, viable cell number by WST-8); assay type: cell-based, rat; settings: mean ± SD of three independent experiments; concentration required to increase the mean viable cell number by 30% vs absence of test compound; serum-free Medium 199, 4 days
Text: Newborn rats (within 1 day after birth) were obtained from pregnant Wister rats purchased from Charles River, anesthetized under ether, and sterilized with 70% ethanol, and then their hearts were excised with tweezers. The excised hearts were washed with a phosphate-buffered physiological saline (T900; Takara) and cut into pieces with surgical scissors. These tissue pieces were washed 4 to 5 times with a phosphate-buffered physiological saline to remove a majority of blood-derived non-heart muscle cells. To the tissue pieces derived from 10 newborns, 5 ml of enzyme solution (1.25 mg trypsin (Difco) and 0.25 mg collagenase (Sigma) per ml of phosphate-buffered saline (PBS)) was added and the mixture was stirred with a stirrer at 37° C. for 15 mins. Another 2.5 ml enzyme solution was then added twice repeatedly at a 15-minutes interval. Then, Medium 199 (Gibco) containing 10% fetal calf serum (Biowiker) was added in a half volume of the enzyme solution to terminate the enzyme reaction. The cells were filtered through a Cell Strainer (Falcon) and then centrifuged at 400×g for 5 minutes, whereby the cells were collected.
The cells thus collected from 10 newborns were suspended in 50 ml Medium 199 containing 10% fetal calf serum, plated onto 100 mm Petri dishes (Iwaki) in a volume of 10 ml/dish and cultured for 1 hour in a CO2 incubator set at 5% CO2 and 37° C. The cells were then recovered, filtered through a Cell Strainer and centrifuged at 400×g for 5 minutes to collect the primary heart muscle cells derived from newborn rats.
Then, the heart muscle cells from 10 newborn rats were suspended in 2 ml low-isotonic solution (prepared by dissolving 8.29 g NH4Cl, 1.0 g KHCO3, 37 mg EDTA/2Na (ethylenediaminetetraacetic acid disodium)(Dojindo) in 1 L of water) and left for 3 minutes to disrupt erythrocytes. After 10 ml Medium 199 containing 10% fetal calf serum was added thereto, the primary heart muscle cells from newborn rats were collected by centrifugation at 400×g for 5 minutes. The cells were suspended in Medium 199 containing 10% fetal calf serum and then filtered through a cell strainer. After 0.3% trypan blue was added to, and mildly mixed with, an aliquot of the resulting cell suspension, the number of heart muscle cells was counted on an erythrocyte counting plate.
The primary heart muscle cells from newborn rats were suspended at a density of 3×10^6 cells/ml in Medium 199 containing 10% fetal calf serum, put onto a 96-well plate in a volume of 0.1 ml/well, and then cultured in a CO2 incubator set at 5% CO2 and 37° C. After the plate was stirred with a micromixer (Taiyo Kagaku Kogyo), the medium was exchanged 3 times with serum-free Medium 199, and then test compounds (Compounds 1 to 5 obtained in Reference Examples) were added thereto. The cells were cultured for additional 4 days to induce apoptosis. Then, fetal calf serum was added thereto at a concentration of 10%, and the cells were further cultured for about 17 hours in a CO2 incubator set at 5% CO2 and 37° C. Finally, the number of viable cells was determined with Cell Counting Kit (Dojindo) using WST-8 (2-(2-methoxy-4-nitrophenyl)-3-(4-nitrophenyl)-5-(2,4-disulfophenyl)-2H-tetrazolium, monosodium salt) as the coloring substrate to determine the inhibition of the heart muscle cell apoptosis.
The above-mentioned exeriment was tripicated in an independent manner. […]

SMILES | phosphorylation of STAT3 induced by LIF [1] | Minimal Effective Concentration [2] [µM]
O=c1nc(-c2ccccn2)sc2ccccc12 [Compound 1, 2-(2-Pyridyl)-4H-1,3-benzothiazin-4-one] | can further promote phosphorylation of STAT3 | 0.015 ± 0.011
O=c1nc(-c2cccnc2)sc2ccccc12 [Compound 2, 2-(3-pyridyl)-4H-1,3-benzothiazin-4-one] |  | 0.041 ± 0.018
O=c1nc(-c2ccncc2)sc2ccccc12 [Compound 3, 2-(4-pyridyl)-4H-1,3-benzothiazin-4-one] |  | 0.014 ± 0.0099
CCOC(=O)/C=C1\NC(=O)c2ccccc2S1 [Compound 4, Ethyl 2-(4-oxo-3,4-dihydro-2H-1,3-benzothiazin-2-ylidene)acetate] |  | 0.019 ± 0.0078
O=C1N/C(=C\C(=O)N2CCCCC2)Sc2ccccc21 [Compound 5, 2-[2-oxo-2-(1-piperidinyl)ethylidene]-2,3-dihydro-4H-1,3-benzothiazin-4-one] |  | 0.06 ± 0.041
